Target: T1, cloned human GLP-1 receptor (Homo sapiens, UniProt P43220)
T1 construct: expressed in transfected cells; host or cells: CHO or HEK-293 cells
Assay: Functional cell-based assay: cAMP functional assay
Conditions: for Emax: 0.5 h, percentage relative to maximal GLP-1-induced cAMP accumulation, na = not active in the assay, read-out: % activation
In short: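 Monolayer cells incubated 30 min at 37 °C with compounds (0.0001–100 μM) in IMDM containing 100 μM RO 20-1724 PDE inhibitor, 0.1% BSA and 2% DMSO. cAMP measured by HTRF.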

T1 sequence (P43220 24-463): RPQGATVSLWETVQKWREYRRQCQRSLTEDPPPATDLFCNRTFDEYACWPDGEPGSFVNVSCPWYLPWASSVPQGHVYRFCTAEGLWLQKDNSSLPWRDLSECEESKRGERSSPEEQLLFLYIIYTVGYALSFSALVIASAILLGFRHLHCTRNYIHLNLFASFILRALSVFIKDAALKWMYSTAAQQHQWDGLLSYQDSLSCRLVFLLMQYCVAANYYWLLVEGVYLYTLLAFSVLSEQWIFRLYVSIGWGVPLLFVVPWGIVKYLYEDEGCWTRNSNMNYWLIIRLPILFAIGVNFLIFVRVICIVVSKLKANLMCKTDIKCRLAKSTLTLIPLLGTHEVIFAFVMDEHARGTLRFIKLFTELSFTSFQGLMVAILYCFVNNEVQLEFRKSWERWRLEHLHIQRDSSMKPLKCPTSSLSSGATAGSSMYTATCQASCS

EC50 [nM] | Emax [%] | SMILES
500 | 34 | COc1ccccc1CN1Cc2cc3c(cc2C[C@H]1C(=O)N[C@@H](Cc1ccc(-c2ccc(C#N)cc2)cc1)C(=O)O)NC(=O)C(c1ccc(OCc2ccc(Cl)c(Cl)c2)cc1)O3 (stereo partly drawn) [Example 43, (S)-3-(4′-Cyano-biphenyl-4-yl)-2-{[(S)-3-[4-(3,4-dichloro-benzyloxy)-phenyl]-6-(2-methoxy-benzyl)-2-oxo-2,3,5,6,7,8-hexahydro-1H-4-oxa-1,6-diaza-anthracene-7-carbonyl]-amino}-propionic acid]
1000 | 25 | Cc1cccc(CN2Cc3cc4c(cc3C[C@H]2C(=O)N[C@@H](Cc2ccc(-c3ccc(C#N)cc3)cc2)C(=O)O)NC(=O)C(c2ccc(OCc3ccc(Cl)c(Cl)c3)cc2)O4)n1 (stereo partly drawn) [Example 44, (S)-3-(4′-Cyano-biphenyl-4-yl)-2-{[(S)-3-[4-(3,4-dichloro-benzyloxy)-phenyl]-6-(6-methyl-pyridin-2-ylmethyl)-2-oxo-2,3,5,6,7,8-hexahydro-1H-4-oxa-1,6-diaza-anthracene-7-carbonyl]-amino}-propionic acid]
1000 | 22 | CSc1nc(CN2Cc3cc4c(cc3C[C@H]2C(=O)N[C@@H](Cc2ccc(-c3ccc(C#N)cc3)cc2)C(=O)O)NC(=O)C(c2ccc(OCc3ccc(Cl)c(Cl)c3)cc2)O4)ccc1C#N (stereo partly drawn) [Example 46, (S)-3-(4′-Cyano-biphenyl-4-yl)-2-({(S)-6-(5-cyano-6-methylsulfanyl-pyridin-2-ylmethyl)-3-[4-(3,4-dichloro-benzyloxy)-phenyl]-2-oxo-2,3,5,6,7,8-hexahydro-1H-4-oxa-1,6-diaza-anthracene-7-carbonyl}-amino)-propionic acid]
895 | 64 | Cn1ccnc1CN1Cc2cc3c(cc2C[C@H]1C(=O)N[C@@H](Cc1ccc(-c2ccc(C#N)cc2)cc1)C(=O)O)NC(=O)C(c1ccc(OCc2ccc(Cl)c(Cl)c2)cc1)O3 (stereo partly drawn) [Example 48, (S)-3-(4′-Cyano-biphenyl-4-yl)-2-{[(S)-3-[4-(3,4-dichloro-benzyloxy)-phenyl]-6-(1-methyl-1H-imidazol-2-ylmethyl)-2-oxo-2,3,5,6,7,8-hexahydro-1H-4-oxa-1,6-diaza-anthracene-7-carbonyl]-amino}-propionic acid]
557 | 57 | N#Cc1ccc(-c2ccc(C[C@H](NC(=O)[C@@H]3Cc4cc5c(cc4CN3Cc3nccs3)OC(c3ccc(OCc4ccc(Cl)c(Cl)c4)cc3)C(=O)N5)C(=O)O)cc2)cc1 (stereo partly drawn) [Example 49, (S)-3-(4′-Cyano-biphenyl-4-yl)-2-({(S)-3-[4-(3,4-dichloro-benzyloxy)-phenyl]-2-oxo-6-thiazol-2-ylmethyl-2,3,5,6,7,8-hexahydro-1H-4-oxa-1,6-diaza-anthracene-7-carbonyl}-amino)-propionic acid]
810 | 33 | N#Cc1ccc(-c2ccc(C[C@H](NC(=O)[C@@H]3Cc4cc5c(cc4CN3S(=O)(=O)c3cccc([N+](=O)[O-])c3)OC(c3ccc(OCc4ccc(Cl)c(Cl)c4)cc3)C(=O)N5)C(=O)O)cc2)cc1 (stereo partly drawn) [Example 52, (S)-3-(4′-Cyano-biphenyl-4-yl)-2-{[(S)-3-[4-(3,4-dichloro-benzyloxy)-phenyl]-6-(3-nitro-benzenesulfonyl)-2-oxo-2,3,5,6,7,8-hexahydro-1H-4-oxa-1,6-diaza-anthracene-7-carbonyl]-amino}-propionic acid]
1040 | 52.5 | N#Cc1ccc(-c2ccc(C[C@H](NC(=O)[C@@H]3Cc4cc5c(cc4CN3Cc3ccccc3C#N)OC(c3ccc(OCc4ccc(Cl)c(Cl)c4)cc3)C(=O)N5)C(=O)O)cc2)cc1 (stereo partly drawn) [Example 53, (S)-2-({(S)-6-(2-Cyano-benzyl)-3-[4-(3,4-dichloro-benzyloxy)-phenyl]-2-oxo-2,3,5,6,7,8-hexahydro-1H-4-oxa-1,6-diaza-anthracene-7-carbonyl}-amino)-3-(4′-cyano-biphenyl-4-yl)-propionic acid]
1080 | 11.8 | N#Cc1ccc(-c2ccc(C[C@H](NC(=O)[C@@H]3Cc4cc5c(cc4CN3CC3CC3)OC(c3ccc(OCc4ccc(Cl)c(Cl)c4)cc3)C(=O)N5)C(=O)O)cc2)cc1 (stereo partly drawn) [Example 54, (S)-3-(4′-Cyano-biphenyl-4-yl)-2-({(S)-6cyclopropylmethyl-3-[4-(3,4-dichloro-benzyloxy)-phenyl]-2-oxo-2,3,5,6,7,8-hexahydro-1H-4-oxa-1,6-diaza-anthracene-7-carbonyl}-amino)-propionic acid]
370 | 40.1 | N#Cc1ccc(-c2ccc(C[C@H](NC(=O)[C@@H]3Cc4cc5c(cc4CN3CC#Cc3ccsc3)OC(c3ccc(OCc4ccc(Cl)c(Cl)c4)cc3)C(=O)N5)C(=O)O)cc2)cc1 (stereo partly drawn) [Example 56, (S)-3-(4′-Cyano-biphenyl-4-yl)-2-{[(S)-3-[4-(3,4-dichloro-benzyloxy)-phenyl]-2-oxo-6-(3-thiophen-3-yl-prop-2-ynyl)-2,3,5,6,7,8-hexahydro-1H-4-oxa-1,6-diaza-anthracene-7-carbonyl]-amino}-propionic acid]
1630 | 62 | N#Cc1ccc(-c2ccc(C[C@H](NC(=O)[C@@H]3Cc4cc5c(cc4CN3C(=O)c3ccccc3)OC(c3ccc(OCc4ccc(Cl)cc4)cc3)C(=O)N5)C(=O)O)cc2)cc1 (stereo partly drawn) [Example 60, (S)-2-({(S)-6-Benzoyl-3-[4-(4-chloro-benzyloxy)-phenyl]-2-oxo-2,3,5,6,7,8-hexahydro-1H-4-oxa-1,6-diaza-anthracene-7-carbonyl}-amino)-3-(4′-cyano-biphenyl-4-yl)-propionic acid]

The remaining lines, values behind:

SMILES | EC50 [nM] | Emax [%]
N#Cc1ccc(-c2ccc(C[C@H](NC(=O)[C@@H]3Cc4cc5c(cc4CN3Cc3cccc(Br)n3)OC(c3ccc(OCc4ccc(Cl)c(Cl)c4)cc3)C(=O)N5)C(=O)O)cc2)cc1 (stereo partly drawn) [Example 45, (S)-2-({(S)-6-(6-Bromo-pyridin-2-ylmethyl)-3-[4-(3,4-dichloro-benzyloxy)-phenyl]-2-oxo-2,3,5,6,7,8-hexahydro-1H-4-oxa-1,6-diaza-anthracene-7-carbonyl}-amino)-3-(4′-cyano-biphenyl-4-yl)-propionic acid] | 1000 | 18
N#Cc1ccc(-c2ccc(C[C@H](NC(=O)[C@@H]3Cc4cc5c(cc4CN3Cc3ncc[nH]3)OC(c3ccc(OCc4ccc(Cl)c(Cl)c4)cc3)C(=O)N5)C(=O)O)cc2)cc1 (stereo partly drawn) [Example 47, (S)-3-(4′-Cyano-biphenyl-4-yl)-2-{[(S)-3-[4-(3,4-dichloro-benzyloxy)-phenyl]-6-(1H-imidazol-2-ylmethyl)-2-oxo-2,3,5,6,7,8-hexahydro-1H-4-oxa-1,6-diaza-anthracene-7-carbonyl]-amino}-propionic acid] | 1200 | 29
N#Cc1ccc(-c2ccc(C[C@H](NC(=O)[C@@H]3Cc4cc5c(cc4CN3C(=O)c3ccccn3)OC(c3ccc(OCc4ccc(Cl)c(Cl)c4)cc3)C(=O)N5)C(=O)O)cc2)cc1 (stereo partly drawn) [Example 50, (S)-3-(4′-Cyano-biphenyl-4-yl)-2-{[(S)-3-[4-(3,4-dichloro-benzyloxy)-phenyl]-2-oxo-6-(pyridine-2-carbonyl)-2,3,5,6,7,8-hexahydro-1H-4-oxa-1,6-diaza-anthracene-7-carbonyl]-amino}-propionic acid] | 1220 | 49
N#Cc1ccc(-c2ccc(C[C@H](NC(=O)[C@@H]3Cc4cc5c(cc4CN3S(=O)(=O)c3ccccc3[N+](=O)[O-])OC(c3ccc(OCc4ccc(Cl)c(Cl)c4)cc3)C(=O)N5)C(=O)O)cc2)cc1 (stereo partly drawn) [Example 51, (S)-3-(4′-Cyano-biphenyl-4-yl)-2-{[(S)-3-[4-(3,4-dichloro-benzyloxy)-phenyl]-6-(2-nitro-benzenesulfonyl)-2-oxo-2,3,5,6,7,8-hexahydro-1H-4-oxa-1,6-diaza-anthracene-7-carbonyl]-amino}-propionic acid] | 820 | 30
N#Cc1ccc(-c2ccc(C[C@H](NC(=O)[C@@H]3Cc4cc5c(cc4CN3CC#Cc3ncccn3)OC(c3ccc(OCc4ccc(Cl)c(Cl)c4)cc3)C(=O)N5)C(=O)O)cc2)cc1 (stereo partly drawn) [Example 55, (S)-3-(4′-Cyano-biphenyl-4-yl)-2-{[(S)-3-[4-(3,4-dichloro-benzyloxy)-phenyl]-2-oxo-6-(3-pyrimidin-2-yl-prop-2-ynyl)-2,3,5,6,7,8-hexahydro-1H-4-oxa-1,6-diaza-anthracene-7-carbonyl]-amino}-propionic acid] | 216 | 49.4
N#Cc1ccc(-c2ccc(C[C@H](NC(=O)[C@@H]3Cc4cc5c(cc4CN3C(=O)c3ccccc3)OC(c3ccc(OCc4c(Cl)cccc4Cl)cc3)C(=O)N5)C(=O)O)cc2)cc1 (stereo partly drawn) [Example 57, (S)-2-({(S)-6-Benzoyl-3-[4-(2,6-dichloro-benzyloxy)-phenyl]-2-oxo-2,3,5,6,7,8-hexahydro-1H-4-oxa-1,6-diaza-anthracene-7-carbonyl}-amino)-3-(4′-cyano-biphenyl-4-yl)-propionic acid] | 570 | 20
N#Cc1ccc(-c2ccc(C[C@H](NC(=O)[C@@H]3Cc4cc5c(cc4CN3C(=O)c3ccccc3)OC(c3ccc(OCc4cc(Cl)ccc4Cl)cc3)C(=O)N5)C(=O)O)cc2)cc1 (stereo partly drawn) [Example 58, (S)-2-({(S)-6-Benzoyl-3-[4-(2,5-dichloro-benzyloxy)-phenyl]-2-oxo-2,3,5,6,7,8-hexahydro-1H-4-oxa-1,6-diaza-anthracene-7-carbonyl}-amino)-3-(4′-cyano-biphenyl-4-yl)-propionic acid] | 565 | 45
N#Cc1ccc(-c2ccc(C[C@H](NC(=O)[C@@H]3Cc4cc5c(cc4CN3C(=O)c3ccccc3)OC(c3ccc(OCc4cccc(Cl)c4)cc3)C(=O)N5)C(=O)O)cc2)cc1 (stereo partly drawn) [Example 59, (S)-2-({(S)-6-Benzoyl-3-[4-(3-chloro-benzyloxy)-phenyl]-2-oxo-2,3,5,6,7,8-hexahydro-1H-4-oxa-1,6-diaza-anthracene-7-carbonyl}-amino)-3-(4′-cyano-biphenyl-4-yl)-propionic acid] | 750 | 52

Reference: patent US7906507B2, “Oxadiazoanthracene compounds for the treatment of diabetes” (TransTech Pharma, Inc., priority 2008, dated 2011)
